Reference: patent publication US5280015A, “2-substituted adenosines and 2-substituted adenosine 5'-carboxamides” (priority 1990, dated 1994)

Key:
[1] = target: T1, adenosine A2 receptors (Bos taurus, UniProt E1BKU0); experiment: FITC-APEC fluorescent binding (association and saturation) to bovine striatal membranes
T1 construct: Striatal tissues obtained from bovine brain; tissue Pel-Freeze Biologicals, Rogers, Ark; host or cells: bovine striatal tissue
From the text: Compounds useful in fluorescent binding assays of adenosine A2 receptors in striatal membranes may be used to screen new ligands for affinity at these receptors, thus contributing to the development of new drugs specific or selective to this receptor. […] The following is an example.
Striatal tissues obtained from bovine brain (Pel-Freeze, Biologicals, Rogers, Ark.) were homogenized in 10 volumes of 0.32M sucrose using a Teflon pestle and glass tube (6-7 passes). The homogenate was centrifuged (4° C.) at 579×g (2,000 rpm) for 10 minutes 4° C.). The initial pellet (P1) was discarded and supernatant recentrifuged at 4° C. (16,000 rpm) for 1 hour. The resultant pellet (P2) was resuspended in ice-cold distilled water using a Brinkman Polytron (setting 6-7, for 3 seconds) and centrifuged (4° C.) at 37,059×g for 1 hour. The distilled water supernatant was decanted and the pellet was resuspended in buffer (50 mM TrisHCl, pH 7.4 at 4° C.) and centrifuged a final time for 1 hour. Tissue homogenates were […] at -80° C. for 1-3 days until binding assays were performed. Adenosine deaminase, (Boehringer Mannheim Biochemicals, Indianapolis, Ind.) from calf intestine was included (10 μ/mg protein, specific activity=200μ/mg) in the incubation media to eliminate endogenous adenosine. Protein quantities were assessed by using the Pierce BCA Protein Assay Reagent (Rockford, Ill.). Protein quantities were ~300μg/assay tube.
Fluorescence intensity (counts per second, cps) was measured using a SPEX Fluorolog Model 1680 0.22-m Double Spectrometer with DM3000 software (SPEX Industries, Edison, N.J.). Excitation and emission spectra were determined by comparing FITC-APEC (Compound 18, 1 μM) to buffer ([…] containing […], pH 7.4 or 8.1 at room temperature) or tissue suspension equivalent in concentration to that used for fluorescent ligand binding experiments. Excitation and emission maxima for FITC-APEC were 492 and 516 nm, respectively.
Association studies of FITC-APEC were performed by incubating (room temperature) striatal membranes in polypropylene tubes containing buffer (pH 7.4) and FITC-APEC (50 nM) for 5-120 minutes. […]
Quantitation (see McCabe et al. Faseb J., Vol. 4, pp 2934-2945, 1990) of FITC-APEC binding was performed by generating a standard line relating fluorescence intensity (cps) emitted to known concentrations (0.5-1024 nM) of FITC-APEC, in buffer ("free" ligand) or tissue suspension.
Bound ligand concentrations (μM) were estimated using linear regression analysis and mole quantities of FITC-APEC bound/mg protein were subsequently determined.

[2] = target: T2, A2 adenosine receptors (Bos taurus, UniProt E1BKU0); experiment: Competitive binding assay in bovine brain using 125I-PAPA-APEC (striatal membranes); set-up: Bovine striatal membranes; from tissue; host or cells: bovine (calf) striatal membranes; conditions: bovine striatum; 11, 12 and 14: apparent Ki; read-out: Ki, inhibition of binding of 125I-PAPA-APEC at A2-receptors
T2 sequence (E1BKU0 1-401): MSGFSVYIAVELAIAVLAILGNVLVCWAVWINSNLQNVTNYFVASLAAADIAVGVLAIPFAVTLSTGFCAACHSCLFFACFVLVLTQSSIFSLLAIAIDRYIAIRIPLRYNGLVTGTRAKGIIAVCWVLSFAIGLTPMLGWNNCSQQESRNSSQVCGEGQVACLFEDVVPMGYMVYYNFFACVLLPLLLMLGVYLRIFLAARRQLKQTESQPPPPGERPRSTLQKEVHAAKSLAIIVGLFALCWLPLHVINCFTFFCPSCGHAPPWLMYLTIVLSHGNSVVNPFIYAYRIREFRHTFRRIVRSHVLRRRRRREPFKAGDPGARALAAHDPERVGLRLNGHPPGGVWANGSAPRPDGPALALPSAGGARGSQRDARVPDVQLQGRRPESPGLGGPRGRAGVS
Method: (§1) The filters were washed with three×3 ml aliquots of pH 7.2 buffer containing 50 mM HEPES, 10 mM Mg^+2, and 0.05% CHAPS. The filters were placed in polypropylene tubes and counted in a Packard gamma counter.

[3] = tested on: A2-adenosine receptors; experiment: as above; conditions: fluorescent probes; derivatives in general
Method: as §1

[4] = target: T2, A2 adenosine receptors; experiment: Displacement of 125I-APNEA from bovine striatum A2 adenosine receptors; format: binding; set-up: bovine striatum A2 adenosine receptors; from tissue; host or cells: bovine striatum
From the text: FITC-APEC binding to bovine striatal membranes was saturable as illustrated by an isotherm representing bound ligand versus increasing concentrations of FITC-APEC (FIG. 1B).

[5] = tested on: striatal A2-adenosine receptors; experiment: Direct binding of 125I-PAPA-APEC to striatal A2-adenosine receptors in bovine brain; conditions: HPLC peak B
[6] = target: striatal A2-adenosine receptors; conditions: Barrington et al., 1989, cited from earlier work
[7] = bovine striatal membranes, fluorescence, 90 min, room temperature

T1 sequence (E1BKU0 1-401): as above

| saturability of binding ([1]; bovine striatal membranes, 16-256 nM) | Bmax [1, 7] [pmol/mg protein] | Kd [1, 7] [nM] | time to binding equilibrium ([1]; bovine striatum, room temperature, FITC-APEC 50 nM) [min] | Ki [2] [nM] | affinity at A2-adenosine receptors [3] | Ki [4] [nM] | SMILES | specific binding and A2 receptor pharmacology [5] | Kd ([6]; bovine brain striatum) [nM] | degree of specific binding ([6]; striatal A2-adenosine receptors, bovine brain) |
| --- | --- | --- | --- | --- | --- | --- | --- | --- | --- | --- |
| saturable | 2.26 | 54.6 | ≤ 90 | 59.8 ± 28 | high affinity | 59.8 ± 28 | CCNC(=O)[C@H]1O[C@@H](n2cnc3c(N)nc(NCCc4ccc(CCC(=O)NCCNC(=S)Nc5ccc(-c6c7ccc(=O)cc-7oc7cc(O)ccc67)c(C(=O)O)c5)cc4)nc32)[C@H](O)[C@@H]1O [Compound 18] | – | – | – |
| – | – | – | – | – | – | – | CCNC(=O)[C@H]1O[C@@H](n2cnc3c(N)nc(NCCc4ccc(CCC(=O)NCCNC(=O)Cc5ccc(N)c([125I])c5)cc4)nc32)[C@H](O)[C@@H]1O [^125 I-PAPA-APEC] | display specific binding and the appropriate A2 receptor pharmacology | 1.4 | 60-80% |
